According to ChEMBL document CHEMBL1201862, “PubChem BioAssay data set” (2004):
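All cell lines were grown in 96-well plates and treated with compound for 48 hours. GI50: concentration for 50% inhibition of growth.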 Active and inactive are the calls of the source. Rule as the data show it: active = GI50 up to about 1.1 µM and inactive = higher.

Experiments:
Assay in all cases: DTP human tumour cell line panel, 48 h
[1] = test system: DU-145
[2] = test system: MDA-MB-435
[3] = test system: COLO 205
[4] = test system: KM12
[5] = test system: OVCAR-3
[6] = test system: SNB-75
[7] = test system: HOP-92
[8] = test system: NCI-H460
[9] = test system: UO-31
[10] = test system: OVCAR-8
[11] = test system: UACC-257
[12] = test system: SK-MEL-5
[13] = test system: HCC 2998
[14] = test system: MDA-MB-231
[15] = test system: A549
[16] = test system: U-251
[17] = test system: EKVX
[18] = test system: SK-OV-3
[19] = test system: HOP-62
[20] = test system: RPMI-8226

Measured: GI50

O=C(O)c1[nH]c2c([N+](=O)[O-])cc([N+](=O)[O-])cc2c1C(=O)O
inactive: [1] > 100 µM | [2] 52.1 µM | [3] > 100 µM | [4] > 100 µM | [5] > 100 µM | [6] > 100 µM | [7] > 100 µM | [8] > 100 µM | [9] > 100 µM | [10] > 100 µM | [11] > 100 µM | [12] > 100 µM | [13] > 100 µM | [14] > 100 µM | [15] > 100 µM | [16] > 100 µM | [17] > 100 µM | [18] > 100 µM | [19] > 100 µM

Cc1nc(N)c(N2CCNCC2)c(O)n1
inactive: [1] > 100 µM | [2] > 100 µM | [3] > 100 µM | [4] > 100 µM | [5] 76.7 µM | [6] > 100 µM | [7] > 100 µM | [8] > 100 µM | [9] > 100 µM | [10] > 100 µM | [20] > 100 µM | [11] > 100 µM | [13] > 100 µM | [14] > 100 µM | [15] > 100 µM | [16] > 100 µM | [17] > 100 µM | [19] > 100 µM

CC(=O)O[C@@H](C1C[C@@H](C)[C@H]2[C@@](O)(O1)[C@H](O)[C@@]1(C)C3=CC[C@H]4C(C)(C)[C@@H](OC5OCC(O)C(O)C5O)CC[C@@]45C[C@@]35CC[C@]21C)C(C)(C)O (some centres not stated)
inactive: [1] 25.5 µM | [2] 24 µM | [3] 22 µM | [4] 22.5 µM | [5] 20.7 µM | [7] 23.8 µM | [8] 18.2 µM | [9] 30.2 µM | [10] 29.8 µM | [20] 18 µM | [11] 19.7 µM | [12] 17.8 µM | [13] 14.3 µM | [14] 18.3 µM | [15] 30.6 µM | [16] 16.8 µM | [17] 24.2 µM | [18] 26.5 µM | [19] 32.7 µM

COC(=O)c1c(C(=O)OC)c2ccc(-c3ccc(Cl)cc3)nn2c1C(=O)c1ccc([N+](=O)[O-])cc1
inactive: [1] > 100 µM | [2] 50.1 µM | [3] 27.3 µM | [4] > 100 µM | [5] 43.5 µM | [7] 10.8 µM | [8] > 100 µM | [9] 32.1 µM | [10] 36.2 µM | [20] 16.7 µM | [11] > 100 µM | [12] 52.1 µM | [13] > 100 µM | [14] > 100 µM | [15] > 100 µM | [16] > 100 µM | [17] 27.4 µM | [18] > 100 µM | [19] > 100 µM

COc1c2c(cc3c1OCO3)[C@]13C=C[C@H](OC)C[C@H]1N(C2)CC3O (some centres not stated)
inactive: [1] > 100 µM | [2] > 100 µM | [3] > 100 µM | [4] > 100 µM | [5] > 100 µM | [7] > 100 µM | [8] > 100 µM | [9] > 100 µM | [10] > 100 µM | [20] > 100 µM | [11] > 100 µM | [12] > 100 µM | [13] > 100 µM | [14] > 100 µM | [15] > 100 µM | [16] > 100 µM | [17] > 100 µM | [18] > 100 µM | [19] > 100 µM

COC(=O)[C@]1(C)CCC[C@@]2(C)[C@@H]3C[C@@H]4[C@H]5C[C@@]3(CC[C@@H]21)C[C@@]45C
inactive: [1] 25.8 µM | [2] 18.3 µM | [3] 20.5 µM | [5] 18.2 µM | [6] 17.7 µM | [7] 15.2 µM | [9] 16 µM | [10] 16.4 µM | [20] 10.3 µM | [11] 15.4 µM | [12] 17.2 µM | [13] 17.3 µM | [14] 15.6 µM | [15] 14.1 µM | [16] 24 µM | [17] 15.6 µM | [18] 14.7 µM | [19] 17.8 µM

Cc1cc(S(=O)(=O)[N-]C(=C(C#N)C#N)[n+]2ccc(N(C)C)cc2)c(SCC(=O)O)cc1Cl
inactive: [1] > 100 µM | [2] > 100 µM | [3] > 100 µM | [4] > 100 µM | [5] > 100 µM | [7] 10 µM | [8] > 100 µM | [9] > 100 µM | [10] > 100 µM | [20] > 100 µM | [11] > 100 µM | [12] > 100 µM | [13] > 100 µM | [14] > 100 µM | [15] > 100 µM | [16] > 100 µM | [17] > 100 µM | [18] > 100 µM | [19] > 100 µM

O=C(/C=C/c1ccccc1)CCc1c(O)c2ccccc2oc1=O
inactive: [1] > 100 µM | [2] 67.9 µM | [3] 89.1 µM | [4] 40.8 µM | [5] 49.4 µM | [6] > 100 µM | [7] 18 µM | [8] 87.9 µM | [9] 63.2 µM | [10] > 100 µM | [20] 32.3 µM | [11] > 100 µM | [12] 80.5 µM | [13] > 100 µM | [14] 44 µM | [15] 83.8 µM | [16] 50.9 µM | [17] 83 µM | [18] > 100 µM

O=C(Nc1nn(C(=O)c2ccc(Cl)cc2)c(=O)s1)c1ccc(Cl)cc1
inactive: [1] > 100 µM | [2] > 100 µM | [3] > 100 µM | [4] > 100 µM | [5] > 100 µM | [7] > 100 µM | [8] > 100 µM | [9] > 100 µM | [10] > 100 µM | [11] > 100 µM | [12] > 100 µM | [13] > 100 µM | [14] > 100 µM | [15] > 100 µM | [16] > 100 µM | [17] 94.8 µM | [18] > 100 µM | [19] > 100 µM

Nc1ncnc2c1ncn2[C@@H]1O[C@H](C(=O)O)[C@@H](O)[C@H]1O [5'-CARBOXY ADENOSINE]
inactive: [1] > 100 µM | [2] > 100 µM | [3] > 100 µM | [4] > 100 µM | [5] > 100 µM | [6] > 100 µM | [7] > 100 µM | [8] > 100 µM | [9] > 100 µM | [10] > 100 µM | [20] > 100 µM | [11] > 100 µM | [12] > 100 µM | [14] > 100 µM | [15] > 100 µM | [16] > 100 µM | [17] > 100 µM | [18] > 100 µM | [19] > 100 µM
